Assay results as given in publication PMC12040169 (PLOS Biology, 2025).

test: in vitro; settings: human, hela cells, % viability

Compound	viability at 28.5 h, 10 µM
O=C(NC[C@H]1O[C@@H](CC(=O)N2CCN(c3ccc(F)cc3)CC2)[C@H](O)[C@@H]1O)C1CC1 [CBK288921]	92.7%
O=C(NC[C@H]1O[C@@H](CC(=O)N2CCN(c3ccc(F)cc3)CC2)[C@H](O)[C@@H]1O)c1ccco1 [CBK288922]	95.4%
Cc1ccc(S(=O)(=O)NC[C@H]2O[C@@H](CC(=O)N3CCOCC3)[C@H](O)[C@@H]2O)cc1 [CBK288924]	87.5%
CC1CCN(C(=O)C[C@@H]2O[C@H](CNS(=O)(=O)c3ccccc3)[C@@H](O)[C@H]2O)CC1 [CBK288927]	89.7%
NC(=O)[C@@H]1C[C@@H](O)[C@H](O)[C@H]2[C@@H]1N(c1ccccc1)C(=S)N2Cc1ccc(F)cc1 [CBK288928]	102%
Nc1ncncc1-c1noc([C@@H]2CCCN2C2CCOCC2)n1 [CBK288932]	90.7%
NC(=O)[C@@H]1C[C@@H](O)[C@H](O)[C@H]2[C@@H]1N(c1ccc(Cl)cc1)C(=S)N2CC1CCCCC1 [CBK288933]	86.8%
COc1ccc(CN2C(=S)N(CC3CCCCC3)[C@H]3[C@@H]2[C@H]2OC(=O)[C@@H]3C[C@H]2O)cc1 [CBK288936]	117%
NC(=O)[C@H]1C[C@@H](O)[C@H](O)[C@H]2[C@@H]1S/C(=N\c1ccc(Cl)cc1)N2Cc1ccccc1 [CBK288940]	94.9%
COc1ccc(/N=C2\S[C@H]3[C@H]([C@@H](O)[C@H](O)C[C@@H]3C(N)=O)N2Cc2ccc(F)cc2)cc1 [CBK288942]	90.5%
COc1ccc(/N=C2\S[C@H]3[C@H]([C@@H](O)[C@H](O)C[C@@H]3C(N)=O)N2Cc2cccs2)cc1 [CBK288943]	88.7%
NC(=O)[C@H]1C[C@@H](O)[C@H](O)[C@H]2[C@@H]1S/C(=N\c1ccccc1)N2Cc1cccs1 [CBK288944]	100%
C=CCN(C)C(=O)[C@H]1C[C@@H](O)[C@H](O)[C@@H]2N=C(Nc3ccc(Cl)cc3)S[C@@H]21 [CBK288946]	87%
C=CCN(C)C(=O)[C@H]1C[C@@H](O)[C@H](O)[C@@H]2N=C(Nc3ccc(OC)cc3)S[C@@H]21 [CBK288947]	97.1%
C=CCN(C)C(=O)[C@H]1C[C@@H](O)[C@H](O)[C@@H]2N=C(Nc3cc(C)cc(C)c3)S[C@@H]21 [CBK288948]	94.2%
Cc1cc(C)cc(NC2=N[C@H]3[C@@H](O)[C@H](O)C[C@H](C(=O)N4CCCCC4)[C@H]3S2)c1 [CBK288952]	90%
O=C([C@H]1C[C@@H](O)[C@H](O)[C@@H]2N=C(Nc3ccc4c(c3)OCO4)S[C@@H]21)N1CCCCC1 [CBK288953]	108%
c1ccc2oc(CN3Cc4nc[nH]c4C[C@H]3c3nc(-c4cnccn4)no3)cc2c1 [CBK288954]	113%
CC(=O)Nc1ccc(CN2Cc3nc[nH]c3C[C@H]2c2nc(-c3ccc(F)cc3)no2)cc1 [CBK288956]	89.7%
CC(=O)c1ccc(NC(=O)N2Cc3nc[nH]c3C[C@H]2c2nc(-c3ccc(C)cc3)no2)cc1 [CBK288959]	83.6%
CC(C)NC(=O)N1Cc2nc[nH]c2C[C@H]1c1nc(-c2ccc(OC(F)(F)F)cc2)no1 [CBK288960]	85.9%
Cc1cccc(-c2noc([C@@H]3Cc4[nH]cnc4CN3C(=O)CC(C)(C)CC(=O)O)n2)c1 [CBK288961]	95.8%
Cc1cccc(-c2noc([C@@H]3Cc4[nH]cnc4CN3C(=O)NC(C)C)n2)c1 [CBK288962]	97.6%
N#Cc1ccc(C(=O)N2Cc3nc[nH]c3C[C@H]2c2nc(-c3ccncc3)no2)cc1 [CBK288963]	117%

Compound	viability at 28.5 h, 10 µM
O=C(c1ccco1)N1Cc2nc[nH]c2C[C@H]1c1nc(-c2ccc3ccccc3c2)no1 [CBK288965]	108%
O=C(Nc1ccc(F)cc1)N1Cc2nc[nH]c2C[C@H]1c1nc(-c2ccc(F)cc2)no1 [CBK288970]	95%
O=C(NCc1ccccc1)[C@@H]1Cc2[nH]cnc2CN1C(=O)C1CCCCC1 [CBK288972]	113%
CC(C)NC(=O)N1Cc2nc[nH]c2C[C@H]1C(=O)NCc1ccco1 [CBK288974]	92.9%
CCNC(=O)N1Cc2nc[nH]c2C[C@H]1C(=O)NCc1ccc(C#N)cc1 [CBK288975]	96.2%
COc1ccc(CN2Cc3nc[nH]c3C[C@H]2C(=O)NCc2ccccc2)c2ccccc12 [CBK288976]	86.5%
O=C([C@@H]1Cc2[nH]cnc2CN1Cc1cc2ccccc2o1)N1CCOCC1 [CBK288977]	114%
CN(Cc1ccccc1)C(=O)[C@@H]1Cc2[nH]cnc2CN1Cc1cc2ccccc2o1 [CBK288978]	108%
O=C(NCc1ccc(C(F)(F)F)cc1)[C@@H]1Cc2[nH]cnc2CN1C1CCOCC1 [CBK288981]	103%
COC(=O)[C@@H]1Cc2ncn(Cc3ccc(OC)cc3)c2CN1C(=O)c1ccc(C#N)cc1 [CBK288982]	95.4%
COC(=O)[C@@H]1Cc2ncn(Cc3ccc(Cl)cc3)c2CN1C(=O)c1ccc(C#N)cc1 [CBK288984]	94.5%
COC(=O)[C@@H]1Cc2ncn(C(C)C)c2CN1S(=O)(=O)c1ccc([N+](=O)[O-])cc1 [CBK288985]	95.7%
COC(=O)[C@@H]1Cc2ncn(C(C)C)c2CN1C(=O)CC(C)(C)C [CBK288988]	88.9%
COC(=O)[C@@H]1Cc2ncn(C(C)C)c2CN1C(=O)c1ccc(F)cc1 [CBK288990]	80.6%
CCCS(=O)(=O)N1Cc2c(ncn2C)C[C@H]1C(=O)OC [CBK288991]	90.2%
COC(=O)[C@@H]1Cc2ncn(C)c2CN1S(=O)(=O)c1cccs1 [CBK288992]	104%
COC(=O)[C@@H]1Cc2ncn(C)c2CN1C(=O)c1ccc(C#N)cc1 [CBK288994]	76.5%
CCCn1cnc2c1CN(C(C)=O)[C@H](C(=O)OC)C2 [CBK288995]	101%
CC(C)NC(=O)N1Cc2nc[nH]c2C[C@H]1c1nc(-c2ccccc2)no1 [CBK288996]	83%
c1ccc2oc(CN3Cc4nc[nH]c4C[C@H]3c3nc(-c4ccc5c(c4)OCO5)no3)cc2c1 [CBK288998]	81.5%
CC(C)NC(=O)N1Cc2nc[nH]c2C[C@H]1c1nc(-c2ccc(F)c(Cl)c2)no1 [CBK288999]	86.6%
O=C1NC[C@@H](CCC(=O)N2CCCC2)N2C[C@@H](NC(=S)Nc3ccccc3)C[C@@H]12 [CBK289004]	113%
N[C@H]1C[C@H]2C(=O)NC[C@@H](CCC(=O)NCc3cccs3)N2C1 [CBK289005]	86.6%
O=C(CC[C@@H]1CNC(=O)[C@@H]2C[C@H](NC(=O)c3ccco3)CN12)Nc1ccccc1 [CBK289007]	91.1%

Compound	viability at 28.5 h, 10 µM
O=C(CC[C@@H]1CNC(=O)[C@@H]2C[C@H](NC(=O)c3cccc(F)c3)CN12)Nc1ccccc1 [CBK289008]	83.9%
O=C(N[C@H]1C[C@H]2C(=O)NC[C@@H](CCC(=O)N3CCOCC3)N2C1)c1cccs1 [CBK289009]	92%
O=C(N[C@H]1C[C@H]2C(=O)NC[C@@H](CCC(=O)N3CCCCC3)N2C1)c1cccs1 [CBK289010]	87.9%
O=C1NC[C@@H](CCC(=O)N2CCCCC2)N2C[C@@H](NS(=O)(=O)c3ccccc3)C[C@@H]12 [CBK289012]	92.9%
COc1ccc(C(=O)N[C@H]2C[C@H]3C(=O)NC[C@@H](CCC(=O)N4CCN(C)CC4)N3C2)cc1 [CBK289016]	90.6%
C#CCNC(=O)CC[C@H]1CNC(=O)[C@@H]2[C@@H](CCN2Cc2ccc(O)cc2)N1C [CBK289017]	94%
C#CCNC(=O)CC[C@H]1CNC(=O)[C@@H]2[C@@H](CCN2Cc2nc3ccccc3n2C)N1C [CBK289018]	102%
COC(=O)CC[C@H]1CNC(=O)[C@@H]2[C@@H](CCN2S(C)(=O)=O)N1C [CBK289019]	112%
CN1[C@@H](CCC(=O)N2CCc3ccccc32)CNC(=O)[C@@H]2[C@H]1CCN2Cc1ccc(O)cc1 [CBK289021]	88.9%
CN1CCC(N2CC[C@@H]3[C@H]2C(=O)NC[C@H](CCC(=O)NCc2ccc(F)cc2)N3C)CC1 [CBK289022]	90.6%
COc1ccc(CNC(=O)CC[C@H]2CNC(=O)[C@H]3NCC[C@H]3N2C)cc1 [CBK289025]	87.6%
CN1CCC(N2CC[C@@H]3[C@H]2C(=O)NC[C@H](CCC(=O)NCc2ccccc2)N3C)CC1 [CBK289026]	114%
CC(C)N1CC[C@@H]2[C@H]1C(=O)NC[C@H](CCC(=O)NCc1ccccc1)N2C [CBK289027]	91.7%
CN1CC[C@@H]2[C@H]1C(=O)NC[C@H](CCC(=O)NCc1cccs1)N2C [CBK289028]	115%
CN1[C@@H](CCC(=O)Nc2ccccc2)CNC(=O)[C@@H]2[C@H]1CCN2C1CCOCC1 [CBK289029]	108%
CN1[C@@H](CCC(=O)N2CCOCC2)CNC(=O)[C@@H]2[C@H]1CCN2C1CCCCC1 [CBK289032]	88.9%
C#CCNC(=O)CC[C@H]1CNC(=O)[C@@H]2[C@@H](CCN2Cc2ccc(C)cc2)N1C [CBK289036]	101%
COC[C@H]1CCCN1C(=O)CC[C@H]1CNC(=O)[C@@H]2[C@@H](CCN2C(C)C)N1C [CBK289038]	103%
COC[C@H]1CCCN1C(=O)CC[C@H]1CNC(=O)[C@@H]2[C@@H](CCN2C2CCCCC2)N1C [CBK289039]	89.7%
CN1CCC(N[C@H]2CC(C)(C)[C@@H]3C[C@@](C)(O)CC[C@]23CCC(=O)N2CCOCC2)CC1 [CBK289040]	97.2%
CC(=O)N1CCN(C(=O)C[C@@H]2C[C@@H](C(C)C)[C@H](CNC(=O)c3cccnc3)C=C2C)CC1 [CBK289046]	102%
CC1=C[C@@H](CNS(=O)(=O)c2ccccc2)[C@H](C(C)C)C[C@H]1CC(=O)N1CCOCC1 [CBK289049]	79.7%
CC1=C[C@@H](CNC(=O)c2ccncc2)[C@H](C(C)C)C[C@H]1CC(=O)N1CCOCC1 [CBK289052]	80.2%
CC1=C[C@@H](CNC(=O)c2cccnc2)[C@H](C(C)C)C[C@H]1CC(=O)N1CCOCC1 [CBK289053]	92.4%
